Measurements from patent EP4745137A1 (Gluetacs Therapeutics (Shanghai) Co., Ltd., priority 2023, dated 2025).
Where two headings read alike, the source gives them in different places.

Experiments:
[1] = molecular target: T1, CK1α (Homo sapiens, UniProt P48729+Q96SW2); assay: Western-blot assay of substrate protein degradation in hPBMCs, CK1α; type: cell-based; conditions: 24 hours of compound treatment, compounds tested at 50 nM and 500 nM (concentration of the table not stated)
T1 construct: endogenous in cells; host or cells: hPBMCs (Milecell Biotechnologies)

[2] = tested on: Human acute T lymphocytic leukemia cells (Molt-4); assay: Tumor cell proliferation inhibition (CellTiter-Meiluncell Luminescent Cell Viability Assay), Molt-4; conditions: MOLT-4, 96 h, read-out: inhibitory activity (IC50, nM) against tumor cells proliferation, Molt 4
[3] = tested on: SR; assay: Tumor cell proliferation inhibition (CellTiter-Meiluncell Luminescent Cell Viability Assay), SR; conditions: Homo sapiens, 96 h, read-out: inhibitory activity (IC50, nM) against tumor cells proliferation, SR
[4] = tested on: Human breast cancer cells (MDA-MB-231); assay: Tumor cell proliferation inhibition (CellTiter-Meiluncell Luminescent Cell Viability Assay), MDA-MB-231; conditions: MDA-MB-231, 96 h, read-out: inhibitory activity (IC50, nM) against tumor cells proliferation, MDA-MB-231
[5] = tested on: Vcap; assay: Tumor cell proliferation inhibition (CellTiter-Meiluncell Luminescent Cell Viability Assay), Vcap; conditions: Homo sapiens, 96 h, read-out: inhibitory activity (IC50, nM) against tumor cells proliferation, Vcap
[6] = tested on: CAL-62; assay: Tumor cell proliferation inhibition (CellTiter-Meiluncell Luminescent Cell Viability Assay), CAL-62; conditions: Homo sapiens, CAL-62, 96 h, read-out: inhibitory activity (IC50, nM) against tumor cells proliferation, CAL-62
Description: (§1) The tumor cells used herein were cultured in a cell culture medium listed in table 2 at 37°C in an incubator with 5% CO2. Prior to experimentation, all cell lines used were correctly identified by STR profiling, and tested negative for mycoplasma contamination using a mycoplasma detection kit through routine screenings.
(§2) On the following day, the test compounds of the present disclosure were subjected to serial dilution. […] Subsequently, 0.5 µL of the test compound dilution was transferred into the 96-well plate containing the cells, with each well containing 100 µL of cell culture medium. […] Into the 96-well plate, the diluted test compounds and corresponding detection reagents were added, resulting in final test compound concentrations of 500 nM and 10 nM, respectively. The experimental procedure is described below using the diluted 2 µM test compound as an example.
(§3) After the cells were treated with the compounds of the present disclosure for a specified period (the treatment durations were shown in Table 3), the cell viability assay reagent was added to the culture medium according to the kit's instructions to determine cell viability. […] All controls were treated using the same procedure as the compounds of the present disclosure. The growth inhibition curves for the compounds of the present disclosure were plotted using Prism GraphPad software, and the IC50 values were calculated therefrom.

[7] = tested on: SW620; assay: Tumor cell proliferation inhibition (CellTiter-Meiluncell Luminescent Cell Viability Assay), SW620; conditions: Homo sapiens, SW-620, 96 h, read-out: inhibitory activity (IC50, nM) against tumor cells proliferation, SW620
[8] = molecular target: T2, IKZF3 (Homo sapiens, UniProt Q96SW2+Q9UKT9); assay: Western-blot assay of substrate protein degradation in hPBMCs, IKZF3; type: cell-based; conditions: 24 hours of compound treatment, compounds tested at 50 nM and 500 nM (concentration of the table not stated)
T2 construct: endogenous in cells; host or cells: hPBMCs (Milecell Biotechnologies)
T2 sequence (Q9UKT9 whole entry): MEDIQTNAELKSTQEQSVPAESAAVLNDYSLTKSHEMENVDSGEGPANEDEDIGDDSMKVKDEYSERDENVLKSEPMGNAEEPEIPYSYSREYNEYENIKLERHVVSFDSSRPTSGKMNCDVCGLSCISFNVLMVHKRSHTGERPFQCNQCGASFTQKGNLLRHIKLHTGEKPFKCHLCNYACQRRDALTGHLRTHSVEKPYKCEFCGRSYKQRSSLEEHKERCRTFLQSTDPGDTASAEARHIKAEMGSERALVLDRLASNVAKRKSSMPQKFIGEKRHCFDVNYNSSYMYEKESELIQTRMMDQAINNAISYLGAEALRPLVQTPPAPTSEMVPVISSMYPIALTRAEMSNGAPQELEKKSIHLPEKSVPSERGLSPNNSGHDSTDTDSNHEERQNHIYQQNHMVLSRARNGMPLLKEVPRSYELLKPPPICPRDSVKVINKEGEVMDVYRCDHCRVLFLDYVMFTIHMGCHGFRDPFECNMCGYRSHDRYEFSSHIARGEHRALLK
T2 sequence (Q96SW2 whole entry): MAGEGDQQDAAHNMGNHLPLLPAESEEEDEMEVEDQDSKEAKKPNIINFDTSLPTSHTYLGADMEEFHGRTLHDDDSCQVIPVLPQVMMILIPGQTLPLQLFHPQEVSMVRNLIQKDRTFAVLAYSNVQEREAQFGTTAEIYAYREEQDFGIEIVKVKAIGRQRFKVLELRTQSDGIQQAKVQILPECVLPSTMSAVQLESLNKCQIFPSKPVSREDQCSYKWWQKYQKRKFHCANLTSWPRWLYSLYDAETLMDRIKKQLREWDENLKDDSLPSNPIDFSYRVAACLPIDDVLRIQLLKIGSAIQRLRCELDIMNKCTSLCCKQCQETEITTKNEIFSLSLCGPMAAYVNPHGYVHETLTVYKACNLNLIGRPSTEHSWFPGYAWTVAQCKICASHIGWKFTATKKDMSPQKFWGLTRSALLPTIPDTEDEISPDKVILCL
T2 sequence (Q16531 whole entry partner): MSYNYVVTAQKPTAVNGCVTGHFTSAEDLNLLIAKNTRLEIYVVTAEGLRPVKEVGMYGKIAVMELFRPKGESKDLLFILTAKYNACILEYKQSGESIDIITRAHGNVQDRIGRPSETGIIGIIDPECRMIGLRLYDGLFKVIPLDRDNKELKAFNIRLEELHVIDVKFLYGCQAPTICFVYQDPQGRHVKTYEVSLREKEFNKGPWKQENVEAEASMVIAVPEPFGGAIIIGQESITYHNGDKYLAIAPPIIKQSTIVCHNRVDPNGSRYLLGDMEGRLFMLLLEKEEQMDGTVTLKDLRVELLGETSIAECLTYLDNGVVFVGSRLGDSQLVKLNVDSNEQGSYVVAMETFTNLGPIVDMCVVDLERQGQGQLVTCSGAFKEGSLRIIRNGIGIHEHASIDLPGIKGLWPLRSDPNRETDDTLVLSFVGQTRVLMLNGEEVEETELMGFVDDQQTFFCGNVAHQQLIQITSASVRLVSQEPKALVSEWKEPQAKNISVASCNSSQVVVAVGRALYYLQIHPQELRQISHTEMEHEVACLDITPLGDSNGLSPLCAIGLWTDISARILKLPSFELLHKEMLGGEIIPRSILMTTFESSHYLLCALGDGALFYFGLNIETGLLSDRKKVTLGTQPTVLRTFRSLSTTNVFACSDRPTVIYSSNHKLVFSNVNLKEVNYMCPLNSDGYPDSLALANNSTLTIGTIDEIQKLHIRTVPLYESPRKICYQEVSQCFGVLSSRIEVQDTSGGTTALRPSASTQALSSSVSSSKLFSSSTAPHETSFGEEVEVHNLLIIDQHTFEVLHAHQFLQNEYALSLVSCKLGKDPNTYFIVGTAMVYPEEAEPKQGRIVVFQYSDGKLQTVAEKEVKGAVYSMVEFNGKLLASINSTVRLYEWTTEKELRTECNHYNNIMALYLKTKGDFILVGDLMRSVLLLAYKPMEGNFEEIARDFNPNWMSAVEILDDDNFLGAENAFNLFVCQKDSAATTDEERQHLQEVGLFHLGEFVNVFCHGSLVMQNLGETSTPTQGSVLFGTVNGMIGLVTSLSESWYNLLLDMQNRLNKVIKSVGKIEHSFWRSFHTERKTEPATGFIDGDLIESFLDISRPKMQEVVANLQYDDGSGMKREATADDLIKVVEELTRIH

[9] = tested on: CCRF-CEM; assay: Tumor cell proliferation inhibition (CellTiter-Meiluncell Luminescent Cell Viability Assay), CCRF-CEM; conditions: Homo sapiens, 96 h, read-out: inhibitory activity (IC50, nM) against tumor cells proliferation, CCRF-CEM
[10] = tested on: MGC803; assay: Tumor cell proliferation inhibition (CellTiter-Meiluncell Luminescent Cell Viability Assay), MGC803; conditions: Homo sapiens, MGC-803, 96 h, read-out: inhibitory activity (IC50, nM) against tumor cells proliferation, MGC803
Description: as §1
On the following day, the test compounds of the present disclosure were subjected to serial dilution. […] Subsequently, 0.5 µL of the test compound dilution was transferred into the 96-well plate containing the cells, with each well containing 100 µL of cell culture medium. […] Into the 96-well plate, the diluted test compounds and corresponding detection reagents were added, resulting in final test compound concentrations of 500 nM and 10 nM, respectively.
as §3

[11] = molecular target: T3, GSPT1 (Homo sapiens, UniProt P15170+Q96SW2); assay: Western-blot assay of substrate protein degradation in hPBMCs, GSPT1; type: cell-based; conditions: 24 hours of compound treatment, compounds tested at 50 nM and 500 nM (concentration of the table not stated)
T3 construct: endogenous in cells; host or cells: hPBMCs (Milecell Biotechnologies)
T3 sequence (P15170 whole entry): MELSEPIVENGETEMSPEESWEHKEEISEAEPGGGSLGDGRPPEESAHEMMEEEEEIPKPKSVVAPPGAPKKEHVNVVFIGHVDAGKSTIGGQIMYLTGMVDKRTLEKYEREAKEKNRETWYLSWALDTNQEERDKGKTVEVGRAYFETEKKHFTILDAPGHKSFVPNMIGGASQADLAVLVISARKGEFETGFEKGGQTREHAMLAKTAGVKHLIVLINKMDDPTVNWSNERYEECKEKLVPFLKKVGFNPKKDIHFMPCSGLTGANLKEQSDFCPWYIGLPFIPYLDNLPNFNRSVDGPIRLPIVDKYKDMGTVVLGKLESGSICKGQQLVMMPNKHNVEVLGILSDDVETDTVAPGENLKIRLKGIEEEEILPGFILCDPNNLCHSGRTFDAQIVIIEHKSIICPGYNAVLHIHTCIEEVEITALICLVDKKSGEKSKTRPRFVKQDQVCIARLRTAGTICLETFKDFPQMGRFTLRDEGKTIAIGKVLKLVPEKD
T3 sequence (Q96SW2 whole entry): as the sequence (Q96SW2 whole entry) above
T3 sequence (Q16531 whole entry partner): as the sequence (Q16531 whole entry partner) above

[12] = tested on: NCI-H1975; assay: Tumor cell proliferation inhibition (CellTiter-Meiluncell Luminescent Cell Viability Assay), NCI-H1975; conditions: Homo sapiens, NCI-H1975, 96 h, read-out: inhibitory activity (IC50, nM) against tumor cells proliferation, H1975
Description: as §1, §2, §3

[13] = molecular target: T4, WEE1 (Homo sapiens, UniProt P30291+Q96SW2); assay: Western-blot assay of substrate protein degradation in hPBMCs, WEE1; type: cell-based; conditions: 24 hours of compound treatment, compounds tested at 50 nM and 500 nM (concentration of the table not stated)
T4 construct: endogenous in cells; host or cells: hPBMCs (Milecell Biotechnologies)
T4 sequence (P30291 whole entry): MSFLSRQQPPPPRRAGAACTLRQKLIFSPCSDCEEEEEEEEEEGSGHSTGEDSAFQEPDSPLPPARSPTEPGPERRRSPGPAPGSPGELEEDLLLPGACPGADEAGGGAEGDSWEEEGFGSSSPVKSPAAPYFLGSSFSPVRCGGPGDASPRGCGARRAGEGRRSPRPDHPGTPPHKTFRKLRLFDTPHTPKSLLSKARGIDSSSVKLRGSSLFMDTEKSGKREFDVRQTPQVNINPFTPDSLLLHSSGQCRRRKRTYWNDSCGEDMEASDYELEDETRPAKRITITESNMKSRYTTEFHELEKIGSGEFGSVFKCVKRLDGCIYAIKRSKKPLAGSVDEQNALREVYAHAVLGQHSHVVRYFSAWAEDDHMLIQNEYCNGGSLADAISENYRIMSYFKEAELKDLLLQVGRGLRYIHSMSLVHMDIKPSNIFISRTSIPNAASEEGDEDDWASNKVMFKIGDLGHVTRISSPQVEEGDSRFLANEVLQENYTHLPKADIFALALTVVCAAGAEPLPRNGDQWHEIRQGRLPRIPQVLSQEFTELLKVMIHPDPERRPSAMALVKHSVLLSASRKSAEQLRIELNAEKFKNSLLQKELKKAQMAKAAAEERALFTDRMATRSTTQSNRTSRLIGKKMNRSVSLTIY
T4 sequence (Q96SW2 whole entry): as the sequence (Q96SW2 whole entry) above
T4 sequence (Q16531 whole entry partner): as the sequence (Q16531 whole entry partner) above

[14] = tested on: Jurkat; assay: Tumor cell proliferation inhibition (CellTiter-Meiluncell Luminescent Cell Viability Assay), Jurkat; conditions: Homo sapiens, 96 h, read-out: inhibitory activity (IC50, nM) against tumor cells proliferation, Jurkat
[15] = molecular target: T5, IKZF1 (Homo sapiens, UniProt Q13422+Q96SW2); assay: Western-blot assay of substrate protein degradation in hPBMCs, IKZF1; type: cell-based; conditions: 24 hours of compound treatment, compounds tested at 50 nM and 500 nM (concentration of the table not stated)
T5 construct: endogenous in cells; host or cells: hPBMCs (Milecell Biotechnologies)
T5 sequence (Q13422 whole entry): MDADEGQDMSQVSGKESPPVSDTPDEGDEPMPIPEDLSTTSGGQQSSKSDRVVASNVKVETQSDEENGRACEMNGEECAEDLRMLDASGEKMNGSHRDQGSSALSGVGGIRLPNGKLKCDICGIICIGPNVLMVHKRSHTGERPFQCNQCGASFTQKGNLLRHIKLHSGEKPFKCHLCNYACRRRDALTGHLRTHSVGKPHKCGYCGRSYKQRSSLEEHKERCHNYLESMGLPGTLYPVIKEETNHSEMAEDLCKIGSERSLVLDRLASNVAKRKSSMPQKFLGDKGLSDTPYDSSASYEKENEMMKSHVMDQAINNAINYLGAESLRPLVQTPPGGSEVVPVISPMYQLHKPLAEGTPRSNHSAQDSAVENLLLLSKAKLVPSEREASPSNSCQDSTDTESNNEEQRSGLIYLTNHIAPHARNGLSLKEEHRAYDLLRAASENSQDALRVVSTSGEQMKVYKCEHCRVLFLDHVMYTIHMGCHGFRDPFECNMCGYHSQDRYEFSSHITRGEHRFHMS
T5 sequence (Q96SW2 whole entry): as the sequence (Q96SW2 whole entry) above
T5 sequence (Q16531 whole entry partner): as the sequence (Q16531 whole entry partner) above

[16] = tested on: MM.1R; assay: Tumor cell proliferation inhibition (CellTiter-Meiluncell Luminescent Cell Viability Assay), MM.1R; conditions: Homo sapiens, 96 h, read-out: inhibitory activity (IC50, nM) against tumor cells proliferation, MM.1R
[17] = molecular target: T6, human Cereblon WT GST-tagged protein (Homo sapiens, UniProt Q96SW2); assay: CRBN-binding affinity by HTRF (CEREBLON BINDING kit)
T6 construct: purchased CISBIO 64BDCRBNPEH
T6 sequence (Q96SW2 whole entry): as the sequence (Q96SW2 whole entry) above

[18] = molecular target: T7, IKZF2 (Homo sapiens, UniProt Q96SW2+Q9UKS7); assay: Western-blot assay of substrate protein degradation in hPBMCs, IKZF2; type: cell-based; conditions: 24 hours of compound treatment, compounds tested at 50 nM and 500 nM (concentration of the table not stated)
T7 construct: endogenous in cells; host or cells: hPBMCs (Milecell Biotechnologies)
T7 sequence (Q9UKS7 whole entry): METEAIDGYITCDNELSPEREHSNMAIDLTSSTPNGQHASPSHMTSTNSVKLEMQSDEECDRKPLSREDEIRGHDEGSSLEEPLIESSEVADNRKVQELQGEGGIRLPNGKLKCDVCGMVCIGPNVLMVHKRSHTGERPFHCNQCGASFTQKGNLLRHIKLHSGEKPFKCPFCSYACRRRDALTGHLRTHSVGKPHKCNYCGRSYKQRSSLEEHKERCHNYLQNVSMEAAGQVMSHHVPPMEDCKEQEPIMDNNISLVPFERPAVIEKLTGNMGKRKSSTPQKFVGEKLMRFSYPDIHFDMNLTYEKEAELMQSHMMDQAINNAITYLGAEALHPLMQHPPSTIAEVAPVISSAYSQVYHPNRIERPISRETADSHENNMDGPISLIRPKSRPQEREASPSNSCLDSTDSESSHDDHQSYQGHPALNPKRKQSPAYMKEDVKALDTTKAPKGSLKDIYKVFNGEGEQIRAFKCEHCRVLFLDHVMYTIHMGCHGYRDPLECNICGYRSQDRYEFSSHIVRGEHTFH
T7 sequence (Q96SW2 whole entry): as the sequence (Q96SW2 whole entry) above
T7 sequence (Q16531 whole entry partner): as the sequence (Q16531 whole entry partner) above

[19] = tested on: TMD8; assay: Tumor cell proliferation inhibition (CellTiter-Meiluncell Luminescent Cell Viability Assay), TMD8; conditions: Homo sapiens, TMD8, 96 h, read-out: inhibitory activity (IC50, nM) against tumor cells proliferation, TMD8
[20] = HTRF inhibitory activity, CEREBLON BINDING kit; read-out: HTRF IC50

SMILES	IC50 [2] [nM]	IC50 [3] [nM]	IC50 [5] [nM]	IC50 [6] [nM]	IC50 [7] [nM]	IC50 [9] [nM]	IC50 [10] [nM]	IC50 [12] [nM]	IC50 [14] [nM]	IC50 [16] [nM]	IC50 [19] [nM]	IC50 [17, 20] [nM]	CK1a substrate protein remaining % [1]	IC50 [4] [nM]	IKZF3 substrate protein remaining % [8]	GSPT1 substrate protein remaining % [11]	Weel substrate protein remaining % [13]	IKZF 1 substrate protein remaining % [15]	IC50 ([17]; read-out: HTRF IC50; HTRF inhibitory activity, CEREBLON BINDING kit) [nM]	IKZF2 substrate protein remaining % [18]
O=C1CCC(N2Cc3cc(CN4CCN(c5ccc(Br)cc5)CC4)ccc3C2=O)C(=O)N1 (stereo not drawn)	5 to 10	100 to 500	10 to 50	10 to 50	100 to 500	5 to 10	100 to 500	100 to 500	1 to 5	5 to 10			A (0% ≤ substrate protein remaining % ≤ 80%)	100 to 500	B (80%< substrate protein remaining %≤ 100%)	A (0% ≤ substrate protein remaining % ≤ 80%)	B (80%< substrate protein remaining %≤ 100%)	B (80%< substrate protein remaining %≤ 100%)	500 to 1000	B (80%< substrate protein remaining %≤ 100%)
O=C1CCC(N2Cc3cc(CN4CCC(c5noc6cc(F)ccc56)CC4)ccc3C2=O)C(=O)N1 (stereo not drawn) [GT-04254, 3-(5-((4-(6-fluorobenzo[d]isoxazol-3-yl)piperidin-1-yl)methyl)-1-oxoisoindolin-2-yl)piperidine-2,6-dione]			10 to 50	10 to 50	10 to 50	5 to 10	100 to 500		10 to 50		100 to 500	500 to 1000	A (0% ≤ substrate protein remaining % ≤ 80%)		A (0% ≤ substrate protein remaining % ≤ 80%)	A (0% ≤ substrate protein remaining % ≤ 80%)	A (0% ≤ substrate protein remaining % ≤ 80%)	A (0% ≤ substrate protein remaining % ≤ 80%)		A (0% ≤ substrate protein remaining % ≤ 80%)
O=C1CCC(N2Cc3cc(CN4CCC(c5ccccc5F)CC4)ccc3C2=O)C(=O)N1 (stereo not drawn) [GT-04470, 3-(5-((4-(2-fluorophenyl)piperidin-1-yl)methyl)-1-oxoisoindolin-2-yl)piperidine-2,6-dione]	10 to 50	500 to 1000	50 to 100	10 to 50	100 to 500	10 to 50	100 to 500	500 to 1000	5 to 10	10 to 50		500 to 1000	A (0% ≤ substrate protein remaining % ≤ 80%)		A (0% ≤ substrate protein remaining % ≤ 80%)	A (0% ≤ substrate protein remaining % ≤ 80%)	A (0% ≤ substrate protein remaining % ≤ 80%)	A (0% ≤ substrate protein remaining % ≤ 80%)		A (0% ≤ substrate protein remaining % ≤ 80%)
O=C1CCC(N2Cc3cc(CN4CCC(c5cccc(C(F)(F)F)c5)CC4)ccc3C2=O)C(=O)N1 (stereo not drawn) [GT-04472, 3-(1-oxo-5-((4-(3-(trifluoromethyl)phenyl)piperidin-1-yl)methyl)isoindolin-2-yl)piperidine-2,6-dione]	1 to 5	50 to 100	10 to 50	5 to 10	10 to 50	1 to 5	50 to 100	10 to 50	1 to 5	1 to 5		500 to 1000	B (80%< substrate protein remaining %≤ 100%)		A (0% ≤ substrate protein remaining % ≤ 80%)	A (0% ≤ substrate protein remaining % ≤ 80%)	A (0% ≤ substrate protein remaining % ≤ 80%)	A (0% ≤ substrate protein remaining % ≤ 80%)		A (0% ≤ substrate protein remaining % ≤ 80%)
Cc1ccsc1C1=CCN(Cc2ccc3c(c2)CN(C2CCC(=O)NC2=O)C3=O)CC1 (stereo not drawn) [GT-04495, 3-(5-((4-(3-methylthiophen-2-yl)-3,6-dihydropyridin-1(2H)-yl)methyl)-1-oxoisoindolin-2-yl)piperidine-2,6-dione]	< 1	1 to 5	1 to 5	< 1	1 to 5	< 1	10 to 50	1 to 5	< 1			< 500	A (0% ≤ substrate protein remaining % ≤ 80%)	1 to 5	B (80%< substrate protein remaining %≤ 100%)	A (0% ≤ substrate protein remaining % ≤ 80%)	B (80%< substrate protein remaining %≤ 100%)	B (80%< substrate protein remaining %≤ 100%)		A (0% ≤ substrate protein remaining % ≤ 80%)

More lines, main results first:

IC50 [2] [nM]	IC50 [3] [nM]	IC50 [5] [nM]	IC50 [6] [nM]	IC50 [7] [nM]	IC50 [9] [nM]	IC50 [10] [nM]	IC50 [12] [nM]	IC50 [14] [nM]	IC50 [16] [nM]	IC50 [19] [nM]	IC50 [17, 20] [nM]	SMILES	CK1a substrate protein remaining % [1]	IC50 [4] [nM]	IKZF3 substrate protein remaining % [8]	GSPT1 substrate protein remaining % [11]	Weel substrate protein remaining % [13]	IKZF 1 substrate protein remaining % [15]	IC50 ([17]; read-out: HTRF IC50; HTRF inhibitory activity, CEREBLON BINDING kit) [nM]	IKZF2 substrate protein remaining % [18]
		5 to 10	5 to 10	10 to 50	5 to 10	100 to 500		5 to 10		10 to 50	500 to 1000	Cc1ccc(Sc2ccccc2N2CCN(Cc3ccc4c(c3)CN(C3CCC(=O)NC3=O)C4=O)CC2)c(C)c1 (stereo not drawn) [GT-04203, 3-(5-((4-(2-((2,4-dimethylphenyl)thio)phenyl)piperazin-1-yl)methyl)-1-oxoisoindolin-2-yl)piperidine-2,6-dione]	A (0% ≤ substrate protein remaining % ≤ 80%)		A (0% ≤ substrate protein remaining % ≤ 80%)	A (0% ≤ substrate protein remaining % ≤ 80%)	A (0% ≤ substrate protein remaining % ≤ 80%)	A (0% ≤ substrate protein remaining % ≤ 80%)		A (0% ≤ substrate protein remaining % ≤ 80%)
5 to 10	500 to 1000	50 to 100	10 to 50	100 to 500	5 to 10	500 to 1000	100 to 500	5 to 10	10 to 50		500 to 1000	O=C1CCC(N2Cc3cc(CN4CCC(c5ccccc5Cl)CC4)ccc3C2=O)C(=O)N1 (stereo not drawn) [GT-04468, 3-(5-((4-(2-chlorophenyl)piperidin-1-yl)methyl)-1-oxoisoindolin-2-yl)piperidine-2,6-dione]	A (0% ≤ substrate protein remaining % ≤ 80%)		A (0% ≤ substrate protein remaining % ≤ 80%)	A (0% ≤ substrate protein remaining % ≤ 80%)	A (0% ≤ substrate protein remaining % ≤ 80%)	A (0% ≤ substrate protein remaining % ≤ 80%)		A (0% ≤ substrate protein remaining % ≤ 80%)
